In patent US20240109918A1, “HETEROCYCLIC COMPOUNDS AND USES THEREOF” (Kumquat Biosciences Inc., priority 2022, published 2024):

How the values were obtained:
[1] = biological target: T1, KRASwt (Homo sapiens, UniProt P01116); experiment: Bio-Biochem-PPI-HTRF Ras-SOS1 interaction assay (KRAS wt); type: biochemical; details: 5 nM
T1 construct: made in house; host or cells: E. coli BL21 (DE3)
Method in brief: (§1)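 Compounds tested in duplicate (10 μM to 0.01 μM) for disruption of His-hSOS1 binding to GST-tagged wild-type or G12D K-Ras in HEPES pH 7.4 buffer. TR-FRET read (Eu donor, XL665 acceptor) after about 10 min or longer; IC50 derived from the 665/620 nm emission ratio.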

[2] = biological target: T2, KRASG12D (Homo sapiens, UniProt P01116, G12D); experiment: Bio-Biochem-PPI-HTRF Ras-SOS1 interaction assay (KRAS G12D); type: biochemical; details: 5 nM
T2 construct: made in house; host or cells: E. coli BL21 (DE3)
Method in brief: as §1

T1 sequence (P01116 1-188 isoform P01116-2): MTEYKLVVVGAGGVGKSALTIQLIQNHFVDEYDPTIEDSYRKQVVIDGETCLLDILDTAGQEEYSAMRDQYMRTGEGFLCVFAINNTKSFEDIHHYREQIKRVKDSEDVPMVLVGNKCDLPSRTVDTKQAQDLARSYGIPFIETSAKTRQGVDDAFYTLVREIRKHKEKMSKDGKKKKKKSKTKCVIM
T2 sequence (P01116 1-188 isoform P01116-2 G12D): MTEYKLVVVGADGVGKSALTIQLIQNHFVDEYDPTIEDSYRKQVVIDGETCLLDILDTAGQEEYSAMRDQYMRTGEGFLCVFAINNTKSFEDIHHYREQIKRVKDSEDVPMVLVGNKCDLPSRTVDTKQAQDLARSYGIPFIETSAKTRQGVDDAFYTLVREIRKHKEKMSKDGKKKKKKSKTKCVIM

IC50 [1] | IC50 [2] | SMILES
< 5 µM | < 5 µM | N#Cc1c(N)sc2c(F)ccc(-c3c(Cl)cc4c(N5CCCCC6(CN(C(=O)CC7CCOCC7)C6)C5)nc(OC[C@@]56CCCN5C[C@H](F)C6)nc4c3F)c12 [compound 204, 2-amino-4-(6-chloro-8-fluoro-2-(((2R,7aS)-2-fluorotetrahydro-1H-pyrrolizin-7a(5H)-yl)methoxy)-4-(2-(2-(tetrahydro-2H-pyran-4-yl)acetyl)-2,6-diazaspiro[3.6]decan-6-yl)quinazolin-7-yl)-7-fluorobenzo[b]thiophene-3-carbonitrile]
< 5 µM | < 5 µM | N#Cc1c(N)sc2c(F)ccc(-c3c(Cl)cc4c(N5CCCCC6(CN(C(=O)COC(F)(F)F)C6)C5)nc(OC[C@@]56CCCN5C[C@H](F)C6)nc4c3F)c12 [compound 268, 2-amino-4-(6-chloro-8-fluoro-2-(((2R,7aS)-2-fluorotetrahydro-1H-pyrrolizin-7a(5H)-yl)methoxy)-4-(2-(2-(trifluoromethoxy)acetyl)-2,6-diazaspiro[3.6]decan-6-yl)quinazolin-7-yl)-7-fluorobenzo[b]thiophene-3-carbonitrile]
< 5 µM | < 5 µM | C#Cc1c(F)ccc2cc(O)cc(-c3ccc4c(N5CCCCC6(CN(C(=O)[C@H]7CC7(F)F)C6)C5)nc(OC[C@@]56CCCN5C[C@H](F)C6)nc4c3F)c12 [compound 305, ((R)-2,2-difluorocyclopropyl) (6-(7-(8-ethynyl-7-fluoro-3-hydroxynaphthalen-1-yl)-8-fluoro-2-(((2R,7aS)-2-fluorotetrahydro-1H-pyrrolizin-7a(5H)-yl)methoxy)quinazolin-4-yl)-2,6-diazaspiro[3.6]decan-2-yl)methanone]
< 5 µM | < 5 µM | N#Cc1c(N)sc2c(F)ccc(-c3c(Cl)cc4c(N5CCC(C(F)F)CC6(CN(C(=O)[C@@H]7CC7(F)F)C6)C5)nc(OC[C@@]56CCCN5C[C@H](F)C6)nc4c3F)c12 (stereo partly drawn) [compound 254, 2-amino-4-(6-chloro-4-(2-((S)-2,2-difluorocyclopropane-1-carbonyl)-9-(difluoromethyl)-2,6-diazaspiro[3.6]decan-6-yl)-8-fluoro-2-(((2R,7aS)-2-fluorotetrahydro-1H-pyrrolizin-7a(5H)-yl)methoxy)quinazolin-7-yl)-7-fluorobenzo[b]thiophene-3-carbonitrile]
< 5 µM | < 5 µM | Cc1c(N)sc2c(F)ccc(-c3c(Cl)cc4c(N5CCOC6(CN(C(=O)/C(C#N)=C/c7ccoc7)C6)C5)nc(OC[C@@]56CCCN5C[C@H](F)C6)nc4c3F)c12 [compound 348, (E)-2-(8-(7-(2-amino-7-fluoro-3-methylbenzo[b]thiophen-4-yl)-6-chloro-8-fluoro-2-(((2R,7aS)-2-fluorotetrahydro-1H-pyrrolizin-7a(5H)-yl)methoxy)quinazolin-4-yl)-5-oxa-2,8-diazaspiro [3.5]nonane-2-carbonyl)-3-(furan-3-yl) acrylonitrile]
< 5 µM | < 5 µM | N#Cc1c(N)sc2c(F)ccc(-c3c(Cl)cc4c(N5CCCCC6(CN(C(=O)C(F)F)C6)C5)nc(OC[C@@]56CCCN5C[C@H](F)C6)nc4c3F)c12 [compound 317, 2-amino-4-(6-chloro-4-(2-(2,2-difluoroacetyl)-2,6-diazaspiro[3.6]decan-6-yl)-8-fluoro-2-(((2R,7aS)-2-fluorotetrahydro-1H-pyrrolizin-7a(5H)-yl)methoxy)quinazolin-7-yl)-7-fluorobenzo[b]thiophene-3-carbonitrile]
< 5 µM | < 5 µM | N#Cc1c(N)sc2c(F)ccc(-c3c(Cl)cc4c(N5CCCCC6(CN(C(=O)CCC(F)F)C6)C5)nc(OC[C@@]56CCCN5C[C@H](F)C6)nc4c3F)c12 [compound 337, 2-amino-4-(6-chloro-4-(2-(4,4-difluorobutanoyl)-2,6-diazaspiro[3.6]decan-6-yl)-8-fluoro-2-(((2R,7aS)-2-fluorotetrahydro-1H-pyrrolizin-7a(5H)-yl)methoxy)quinazolin-7-yl)-7-fluorobenzo[b]thiophene-3-carbonitrile]
